# Literature values as cited in US20200277251A1, “NOVEL ANTIBACTERIAL COMPOUNDS AND METHODS OF MAKING AND USING SAME” (BROWN UNIVERSITY, priority 2017, published 2020).
# Tested on: LT
# Conditions: purified autolysin; cited from earlier work
smiles,measurement,value
CC1=N[C@@H]2[C@@H](O)[C@H](O)[C@@H](CO)O[C@@H]2S1 [NAG-thiazoline],binding to LT,weak binder
